Values quoted from earlier work in patent US20250064831A1 (Acerus Biopharma Inc., priority 2012, published 2025).

Assays:
[1] = in vivo
[2] = polyethylene glycol (200 mg/ml), high variations
[3] = progesterone/cyclodextrin powder mixtures, nasal

Structure (SMILES)	elimination half-lives [1]	duration of serum level [2]	serum level decrease [3] [min]
CN(C)CC(=O)O[C@H]1CC[C@H]2[C@@H]3CCC4=CC(=O)CC[C@]4(C)[C@H]3CC[C@]12C [testosterone 17β-N,N-dimethylglycinate]	about 55 min		
CC(=O)[C@H]1CC[C@H]2[C@@H]3CCC4=CC(=O)CC[C@]4(C)[C@H]3CC[C@]12C [progesterone]		at least 8 hours	≤ 20
